Source: PubChem BioAssay (NCI)
Where “and” joins values, the source holds several entries; their conditions need not be identical. Equal values may be shown once.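 Each compound was tested at five concentrations against cells in 96-well plates for 48 hours. The concentration for 50% growth inhibition is given as GI50. TGI denotes the concentration required for complete inhibition of growth.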 Calls of active or inactive are those of the source. Rule as the data show it: active = GI50 below about 0.43 µM; inactive = the rest.

What was measured:
Test in all cases: NCI tumour cell line growth inhibition, 48 h
CCRF-CEM leukemia = tested on: CCRF-CEM leukemia
HT29 colon = tested on: HT29 colon
M14 melanoma = tested on: M14 melanoma
OVCAR-8 ovarian = tested on: OVCAR-8 ovarian
SK-MEL-28 melanoma = tested on: SK-MEL-28 melanoma
SK-OV-3 ovarian = tested on: SK-OV-3 ovarian
SF-539 CNS = tested on: SF-539 CNS
BT-549 breast = tested on: BT-549 breast
MCF7 breast = tested on: MCF7 breast

Compound: O=C(CC1(O)C(=O)Nc2c(Cl)ccc(Cl)c21)c1ccc(F)cc1 (stereo not drawn)
- TGI (CCRF-CEM leukemia): > 100 µM
- TGI (HT29 colon): > 100 µM
- TGI (M14 melanoma): > 100 µM
- TGI (OVCAR-8 ovarian): > 100 µM
- TGI (SK-MEL-28 melanoma): > 100 µM
- TGI (SK-OV-3 ovarian): > 100 µM

Compound: CCOC(=O)/C(=C\c1ccccc1)C(=O)O
- TGI (CCRF-CEM leukemia): > 100 µM
- TGI (HT29 colon): > 100 µM
- TGI (M14 melanoma): > 100 µM
- TGI (OVCAR-8 ovarian): > 100 µM
- TGI (SF-539 CNS): > 100 µM
- TGI (SK-MEL-28 melanoma): > 100 µM
- TGI (SK-OV-3 ovarian): > 100 µM

Compound: CCCCCCCC(=O)OCC/C=C/C1OC1C1OC(=O)/C=C\C=C\c2nc(oc2C)/C=C(/C)CCC2OC2C1OC(=O)NC(C)=O (stereo not drawn)
- GI50 (BT-549 breast): 0.0466 µM
- TGI (BT-549 breast): 0.168 µM
- GI50 (CCRF-CEM leukemia): 0.0651 µM
- TGI (CCRF-CEM leukemia): 3.98 µM
- GI50 (HT29 colon): 0.0397 µM
- TGI (HT29 colon): 1.12 µM
- GI50 (MCF7 breast): 0.0368 µM
- TGI (MCF7 breast): 0.481 µM
- GI50 (OVCAR-8 ovarian): 0.028 µM
- TGI (OVCAR-8 ovarian): 0.826 µM
- GI50 (SF-539 CNS): 0.0396 µM
- TGI (SF-539 CNS): 0.0819 µM
- GI50 (SK-MEL-28 melanoma): 0.0679 µM
- TGI (SK-MEL-28 melanoma): 0.159 µM
- GI50 (SK-OV-3 ovarian): 0.0643 µM
- TGI (SK-OV-3 ovarian): 1.33 µM

Compound: CC(C)(CO)N1CCN(C(=S)Nc2ccccc2)CC1
- TGI (BT-549 breast): > 100 µM
- TGI (HT29 colon): > 100 µM
- TGI (M14 melanoma): > 100 µM
- TGI (MCF7 breast): > 100 µM
- TGI (OVCAR-8 ovarian): > 100 µM
- TGI (SF-539 CNS): > 100 µM
- TGI (SK-MEL-28 melanoma): > 100 µM
- TGI (SK-OV-3 ovarian): > 100 µM

Compound: COc1ccc2c(c1)CCCN2c1c2ccccc2nc2ccccc12
- GI50 (BT-549 breast): 0.49 µM
- TGI (BT-549 breast): 6.28 µM
- GI50 (CCRF-CEM leukemia): 0.353 µM
- TGI (CCRF-CEM leukemia): 71.6 µM
- GI50 (HT29 colon): 0.36 µM
- TGI (HT29 colon): > 100 µM
- GI50 (MCF7 breast): 0.316 µM
- TGI (MCF7 breast): 33.2 µM
- GI50 (OVCAR-8 ovarian): 0.481 µM
- TGI (OVCAR-8 ovarian): > 100 µM
- GI50 (SF-539 CNS): 0.251 µM
- TGI (SF-539 CNS): 0.741 µM
- GI50 (SK-MEL-28 melanoma): 0.878 µM
- TGI (SK-MEL-28 melanoma): > 100 µM
- GI50 (SK-OV-3 ovarian): 0.652 µM
- TGI (SK-OV-3 ovarian): > 100 µM

Compound: O=C(CC1C(=O)NN(c2ccc(Br)cc2)C1=O)c1cc(O)ccc1O (stereo not drawn)
- GI50 (BT-549 breast): 13.9 µM
- TGI (BT-549 breast): > 50 µM
- GI50 (CCRF-CEM leukemia): > 50 µM
- TGI (CCRF-CEM leukemia): > 50 µM
- GI50 (HT29 colon): 22 µM
- TGI (HT29 colon): > 50 µM
- GI50 (M14 melanoma): 31.2 µM
- TGI (M14 melanoma): > 50 µM
- GI50 (MCF7 breast): 21.2 µM
- TGI (MCF7 breast): > 50 µM
- GI50 (OVCAR-8 ovarian): 18.4 µM
- TGI (OVCAR-8 ovarian): > 50 µM
- GI50 (SF-539 CNS): 11.3 µM
- TGI (SF-539 CNS): 27.3 µM
- GI50 (SK-MEL-28 melanoma): 28 µM
- TGI (SK-MEL-28 melanoma): > 50 µM

Compound: O=C(Nc1ccncc1)C(=O)c1cn(S(=O)(=O)c2cccc(F)c2)c2ccccc12
- GI50 (BT-549 breast): 2.29 µM
- TGI (BT-549 breast): 86.8 µM
- GI50 (CCRF-CEM leukemia): 2.58 µM
- TGI (CCRF-CEM leukemia): > 100 µM
- GI50 (HT29 colon): 1.77 µM
- TGI (HT29 colon): 14.9 µM
- GI50 (MCF7 breast): 0.719 µM
- TGI (MCF7 breast): > 100 µM
- GI50 (OVCAR-8 ovarian): 5.21 µM
- TGI (OVCAR-8 ovarian): > 100 µM
- GI50 (SF-539 CNS): 4.41 µM
- TGI (SF-539 CNS): > 100 µM
- GI50 (SK-MEL-28 melanoma): 4.74 µM
- TGI (SK-MEL-28 melanoma): 60.5 µM
- GI50 (SK-OV-3 ovarian): 20.3 µM
- TGI (SK-OV-3 ovarian): 76.5 µM

Compound: Cc1cc(-c2cnn3c(NCC4CC(C)(O)C4)cc(Oc4cccnc4)nc23)ccc1C(=O)NC1CC1 (stereo not drawn)
- GI50 (BT-549 breast): > 100 µM
- TGI (BT-549 breast): > 100 µM
- GI50 (CCRF-CEM leukemia): 0.259 µM
- TGI (CCRF-CEM leukemia): > 100 µM
- GI50 (M14 melanoma): 1.44 µM
- TGI (M14 melanoma): > 100 µM
- GI50 (MCF7 breast): 98.9 µM
- TGI (MCF7 breast): > 100 µM
- GI50 (OVCAR-8 ovarian): 2.41 µM
- TGI (OVCAR-8 ovarian): > 100 µM
- GI50 (SF-539 CNS): 2.01 µM
- TGI (SF-539 CNS): > 100 µM
- GI50 (SK-OV-3 ovarian): 2.69 µM
- TGI (SK-OV-3 ovarian): > 100 µM

Compound: O=c1cc(-c2ccccc2)oc2cc(OC/C(=N/O)c3ccccc3)ccc12
- GI50 (BT-549 breast): 12.4 µM
- TGI (BT-549 breast): 27.8 µM
- GI50 (HT29 colon): 22.4 µM
- TGI (HT29 colon): > 50 µM
- GI50 (M14 melanoma): > 50 µM
- TGI (M14 melanoma): > 50 µM
- GI50 (OVCAR-8 ovarian): 32.8 µM
- TGI (OVCAR-8 ovarian): > 50 µM
- GI50 (SF-539 CNS): 10.8 µM
- TGI (SF-539 CNS): 23.6 µM
- GI50 (SK-MEL-28 melanoma): 12.3 µM
- TGI (SK-MEL-28 melanoma): 32.2 µM
- GI50 (SK-OV-3 ovarian): 12.1 µM
- TGI (SK-OV-3 ovarian): 32.5 µM

Compound: COc1ccc(C(=O)C#Cc2cnc(OC)nc2OC)cc1
- GI50 (BT-549 breast): 25400 µM
- GI50 (CCRF-CEM leukemia): 2530 µM
- TGI (CCRF-CEM leukemia): 10800 µM
- GI50 (HT29 colon): 17900 µM
- GI50 (M14 melanoma): 27900 µM
- TGI (M14 melanoma): 2.64 µM
- TGI (MCF7 breast): 2.54 µM
- GI50 (OVCAR-8 ovarian): 32300 µM
- TGI (OVCAR-8 ovarian): 3.4 µM
- GI50 (SK-MEL-28 melanoma): 89800 µM
- TGI (SK-MEL-28 melanoma): 3.47 µM
- TGI (SK-OV-3 ovarian): 27.2 µM
- outcome (SK-OV-3 ovarian): inactive

Compound: Cc1c(C(=O)C/C(=N/NC(=O)C[N+](C)(C)C)C(=O)Nc2ccc(Cl)cc2)[n+](=O)c2ccccc2n1O
- TGI (CCRF-CEM leukemia): > 100 µM
- TGI (HT29 colon): > 100 µM
- TGI (M14 melanoma): > 100 µM
- TGI (OVCAR-8 ovarian): > 100 µM
- TGI (SF-539 CNS): > 100 µM
- TGI (SK-MEL-28 melanoma): > 100 µM

Compound: CC(SC(=S)N1CCOCC1)c1cc2oc(=O)n(C)c2cc1Cl (stereo not drawn)
- TGI (CCRF-CEM leukemia): > 100 µM
- TGI (HT29 colon): > 100 µM
- TGI (M14 melanoma): > 100 µM
- TGI (OVCAR-8 ovarian): > 100 µM
- TGI (SF-539 CNS): > 100 µM
- TGI (SK-MEL-28 melanoma): > 100 µM
- TGI (SK-OV-3 ovarian): > 100 µM

Compound: Cc1cc(N(CCC#N)CCC#N)ccc1/C=C1\N=C(c2cc([N+](=O)[O-])ccc2Cl)N(c2cccc(Cl)c2)C1=O
- TGI (CCRF-CEM leukemia): > 100 µM
- TGI (HT29 colon): > 100 µM
- TGI (M14 melanoma): > 100 µM
- TGI (OVCAR-8 ovarian): > 100 µM
- TGI (SF-539 CNS): > 100 µM
- TGI (SK-MEL-28 melanoma): > 100 µM
- TGI (SK-OV-3 ovarian): > 100 µM

Compound: CC(=O)O[C@H]1C(=O)[C@@]2(C)C(C(OC(=O)c3ccccc3)[C@]3(O)CC(OC(=O)[C@H](OC(=O)CCC(=O)O)C(NC(=O)c4ccccc4)c4ccccc4)C(C)=C1C3(C)C)C1(OC(C)=O)COC1C[C@@H]2O (stereo partly drawn)
- TGI (CCRF-CEM leukemia): 0.658 µM and 1.57 µM
- GI50 (M14 melanoma): < 0.0111 µM and 0.0224 µM
- TGI (M14 melanoma): 41.2 µM and > 100 µM
- TGI (MCF7 breast): > 100 µM
- GI50 (OVCAR-8 ovarian): 0.0159 µM and 0.038 µM
- TGI (OVCAR-8 ovarian): > 100 µM
- TGI (SF-539 CNS): < 0.0196 µM and 0.0584 µM
- GI50 (SK-OV-3 ovarian): < 0.0159 µM and 0.0343 µM
- TGI (SK-OV-3 ovarian): > 100 µM

Compound: O=[N+]([O-])c1ccc(C=NC2CCCCC2)cc1
- TGI (CCRF-CEM leukemia): > 100 µM
- TGI (HT29 colon): > 100 µM
- TGI (M14 melanoma): > 100 µM
- TGI (OVCAR-8 ovarian): > 100 µM
- TGI (SF-539 CNS): > 100 µM
- TGI (SK-MEL-28 melanoma): > 100 µM
- TGI (SK-OV-3 ovarian): > 100 µM

Compound: O=C(CCN(C(=O)O)S(=O)(=O)c1ccc(NC(=O)c2ccccc2)cc1)NC1CCCCC1
- TGI (CCRF-CEM leukemia): > 100 µM
- TGI (HT29 colon): 56.8 µM
- TGI (M14 melanoma): > 100 µM
- TGI (OVCAR-8 ovarian): > 100 µM
- TGI (SF-539 CNS): > 100 µM
- TGI (SK-MEL-28 melanoma): > 100 µM
- TGI (SK-OV-3 ovarian): > 100 µM

Compound: O=S(=O)(NC1=NCCN1C(=S)SN1CCn2c1nsc2=S)c1cccc(Cl)c1
- GI50 (BT-549 breast): 22.3 µM
- TGI (BT-549 breast): 68.4 µM
- GI50 (CCRF-CEM leukemia): 3.81 µM
- TGI (CCRF-CEM leukemia): > 100 µM
- GI50 (HT29 colon): 20.5 µM
- TGI (HT29 colon): 74 µM
- GI50 (M14 melanoma): 15.8 µM
- TGI (M14 melanoma): 33.2 µM
- GI50 (MCF7 breast): 15.9 µM
- TGI (MCF7 breast): 36.3 µM
- GI50 (OVCAR-8 ovarian): 26.4 µM
- TGI (OVCAR-8 ovarian): > 100 µM
- GI50 (SF-539 CNS): 19.4 µM
- TGI (SF-539 CNS): 34.2 µM
- GI50 (SK-MEL-28 melanoma): 21.4 µM
- TGI (SK-MEL-28 melanoma): 39.7 µM

Compound: O/N=C/c1ncccc1C1OCCO1
- TGI (CCRF-CEM leukemia): > 100 µM
- TGI (HT29 colon): > 100 µM
- TGI (M14 melanoma): > 100 µM
- TGI (OVCAR-8 ovarian): > 100 µM
- TGI (SF-539 CNS): > 100 µM
- TGI (SK-MEL-28 melanoma): > 100 µM
- TGI (SK-OV-3 ovarian): > 100 µM

Compound: CC1OC(OC2C(OC(=O)[C@]34CCC(C)(C)CC3C3=CCC5[C@@]6(C)C[C@H](O)[C@H](OC7OC(CO)C(O)C(O)C7N)[C@@](C)(C(=O)O)C6CC[C@@]5(C)C3(C)CC4)OCC(O)C2O)C(O)C(O)C1OC1OCC(O)C(O)C1O (stereo partly drawn)
- TGI (CCRF-CEM leukemia): > 100 µM
- TGI (HT29 colon): > 100 µM
- TGI (OVCAR-8 ovarian): > 100 µM
- TGI (SF-539 CNS): > 100 µM
- TGI (SK-MEL-28 melanoma): > 100 µM
- TGI (SK-OV-3 ovarian): > 100 µM
